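Growth conditions: 96-well plates. Treatment: test compound, 48 hours, 5 concentrations. Analysis: linear interpolation between bracketing concentrations; unreached endpoints set to highest concentration. Abbreviation: GI50, concentration required for 50% inhibition of growth.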 Calls of active or inactive are those of the source. Rule as the data show it: active = GI50 up to about 1.1 µM and inactive = higher.
What was measured:
Experiment in all cases: NCI-60 cell line screen, 48 h
BT-549 = system: BT-549
MOLT-4 = system: MOLT-4
Hs-578T = system: Hs-578T
CCRF-CEM = system: CCRF-CEM
CAKI-1 = system: CAKI-1
UACC-257 = system: UACC-257
MDA-N = system: MDA-N
SK-MEL-28 = system: SK-MEL-28
OVCAR-4 = system: OVCAR-4
OVCAR-8 = system: OVCAR-8
SF-268 = system: SF-268
786-0 = system: 786-0
HCT-116 = system: HCT-116
HCC 2998 = system: HCC 2998
K562 = system: K562
SNB-75 = system: SNB-75
LOX IMVI = system: LOX IMVI

Compound	GI50 (BT-549)	GI50 (MOLT-4)	GI50 (Hs-578T)	GI50 (CCRF-CEM)	GI50 (CAKI-1)	GI50 (UACC-257)	GI50 (MDA-N)	GI50 (SK-MEL-28)	GI50 (OVCAR-4)	GI50 (OVCAR-8)	GI50 (SF-268)	GI50 (786-0)	GI50 (HCT-116)	GI50 (HCC 2998)	GI50 (K562)	GI50 (SNB-75)	GI50 (LOX IMVI)
[N-]=[N+]=Nc1ccccc1C(=O)N1C(=O)c2ccccc2C(=O)N(C(=O)c2ccccc2N=[N+]=[N-])c2ccccc21	55.2 µM (inactive)	13.9 µM (inactive)	35.6 µM (inactive)	11.1 µM (inactive)	59 µM (inactive)	82.4 µM (inactive)	59.3 µM (inactive)	> 100 µM (inactive)	> 100 µM (inactive)	97.3 µM (inactive)	71 µM (inactive)	28.4 µM (inactive)	35 µM (inactive)	> 100 µM (inactive)	30.3 µM (inactive)	21.4 µM (inactive)	19.8 µM (inactive)
C=C(Cl)[C@](Cl)(CBr)CC[C@@H](Br)C(C)(C)Cl [HALOMON]	1.29 µM (inactive)	12.8 µM (inactive)	0.611 µM (active)	14.4 µM (inactive)	0.337 µM (active)	1.4 µM (inactive)	0.959 µM (active)	1.73 µM (inactive)	1.46 µM (inactive)	1.27 µM (inactive)	0.515 µM (active)	0.147 µM (active)	0.392 µM (active)	1.5 µM (inactive)	0.916 µM (active)	0.449 µM (active)	17.7 µM (inactive)
CC(=O)C1C(=O)C(C(C)=O)C2C3C=CC(C3)C12 (stereo not drawn)	> 100 µM (inactive)	> 100 µM (inactive)	> 100 µM (inactive)	> 100 µM (inactive)	> 100 µM (inactive)	> 100 µM (inactive)	> 100 µM (inactive)	> 100 µM (inactive)	> 100 µM (inactive)	> 100 µM (inactive)	> 100 µM (inactive)	> 100 µM (inactive)	> 100 µM (inactive)	> 100 µM (inactive)	> 100 µM (inactive)	> 100 µM (inactive)	> 100 µM (inactive)
O=C(CN1CCOCC1)CC(O)(C(F)(F)F)C(F)(F)F	> 100 µM (inactive)	37.2 µM (inactive)	35.6 µM (inactive)	56.4 µM (inactive)	78.3 µM (inactive)	> 100 µM (inactive)	> 100 µM (inactive)	> 100 µM (inactive)	> 100 µM (inactive)	> 100 µM (inactive)	–	> 100 µM (inactive)	44.9 µM (inactive)	67.3 µM (inactive)	55.1 µM (inactive)	38.6 µM (inactive)	46 µM (inactive)
CS(=O)(=O)c1nc(-c2cc3c(c(S(C)(=O)=O)n2)CCC3)cc2c1CCCC2	32.1 µM (inactive)	> 100 µM (inactive)	2.55 µM (inactive)	> 100 µM (inactive)	17 µM (inactive)	> 100 µM (inactive)	> 100 µM (inactive)	> 100 µM (inactive)	> 100 µM (inactive)	19.1 µM (inactive)	7.76 µM (inactive)	35.3 µM (inactive)	> 100 µM (inactive)	> 100 µM (inactive)	> 100 µM (inactive)	8.63 µM (inactive)	18.7 µM (inactive)
Cc1c(C#N)c(=N)oc2ccccc12	> 100 µM (inactive)	> 100 µM (inactive)	> 100 µM (inactive)	> 10 µM (inactive)	> 100 µM (inactive)	> 100 µM (inactive)	> 100 µM (inactive)	> 100 µM (inactive)	> 100 µM (inactive)	> 100 µM (inactive)	> 100 µM (inactive)	> 100 µM (inactive)	> 100 µM (inactive)	> 100 µM (inactive)	> 100 µM (inactive)	57.5 µM (inactive)	> 100 µM (inactive)
O=C(O)CCN1CCN(CCC(=O)O)CCN(CCC(=O)O)CC1	> 100 µM (inactive)	> 100 µM (inactive)	> 100 µM (inactive)	> 100 µM (inactive)	> 100 µM (inactive)	> 100 µM (inactive)	> 100 µM (inactive)	> 100 µM (inactive)	> 100 µM (inactive)	> 100 µM (inactive)	–	79.6 µM (inactive)	32.6 µM (inactive)	> 100 µM (inactive)	36.3 µM (inactive)	45.8 µM (inactive)	82.8 µM (inactive)
Cc1ccccc1-n1c(=O)nc2n(-c3ccc(C(C)(C)C)cc3)c3ccccc3cc-2c1=O	25.7 µM (inactive)	23.8 µM (inactive)	24.7 µM (inactive)	19.8 µM (inactive)	23.9 µM (inactive)	17.2 µM (inactive)	22.6 µM (inactive)	15.3 µM (inactive)	26.5 µM (inactive)	17.1 µM (inactive)	27.5 µM (inactive)	24.4 µM (inactive)	15.5 µM (inactive)	18.1 µM (inactive)	37.8 µM (inactive)	22.3 µM (inactive)	15.6 µM (inactive)
CCOC(=O)C(NC(=O)c1cccc(Cl)c1)(Nc1cccc(C)c1)C(F)(F)F (stereo not drawn)	13 µM (inactive)	20.4 µM (inactive)	14.8 µM (inactive)	11.6 µM (inactive)	20.7 µM (inactive)	25.7 µM (inactive)	17.5 µM (inactive)	17.4 µM (inactive)	21.8 µM (inactive)	21.2 µM (inactive)	15.3 µM (inactive)	23.3 µM (inactive)	19.1 µM (inactive)	16.7 µM (inactive)	23.6 µM (inactive)	12.4 µM (inactive)	15.3 µM (inactive)
O=C1Nc2ccccc2/C1=N/Nc1ccccc1[N+](=O)[O-]	49.1 µM (inactive)	51.4 µM (inactive)	29.2 µM (inactive)	91.6 µM (inactive)	21.6 µM (inactive)	56.1 µM (inactive)	> 100 µM (inactive)	75.9 µM (inactive)	25.5 µM (inactive)	23.3 µM (inactive)	10 µM (inactive)	14.5 µM (inactive)	25.9 µM (inactive)	44.4 µM (inactive)	66.5 µM (inactive)	16.5 µM (inactive)	36.4 µM (inactive)
O=c1c2sc(=S)n(-c3ccc(F)cc3)c2ncn1/N=C/c1ccc(F)cc1F	15.4 µM (inactive)	–	29.1 µM (inactive)	63.7 µM (inactive)	14.4 µM (inactive)	34.9 µM (inactive)	> 100 µM (inactive)	29.8 µM (inactive)	18.9 µM (inactive)	20.1 µM (inactive)	18.7 µM (inactive)	17.2 µM (inactive)	31 µM (inactive)	31 µM (inactive)	> 100 µM (inactive)	16 µM (inactive)	43.6 µM (inactive)
CC(CSC(=N)N)C(N)=O (stereo not drawn)	> 100 µM (inactive)	–	> 100 µM (inactive)	> 100 µM (inactive)	> 100 µM (inactive)	> 100 µM (inactive)	> 100 µM (inactive)	> 100 µM (inactive)	> 100 µM (inactive)	> 100 µM (inactive)	> 100 µM (inactive)	> 100 µM (inactive)	> 100 µM (inactive)	> 100 µM (inactive)	> 100 µM (inactive)	> 100 µM (inactive)	> 100 µM (inactive)
CCOc1cccc(/C=N/N=C2\C(=O)Nc3c(Cl)cc(Cl)cc32)c1O	39.6 µM (inactive)	28.4 µM (inactive)	> 100 µM (inactive)	31.6 µM (inactive)	> 100 µM (inactive)	> 100 µM (inactive)	45.7 µM (inactive)	71.8 µM (inactive)	62.8 µM (inactive)	60.5 µM (inactive)	–	74.6 µM (inactive)	74.3 µM (inactive)	85.7 µM (inactive)	41.1 µM (inactive)	40.9 µM (inactive)	32.5 µM (inactive)
COc1cc2ccc1OCc1cccc(n1)COc1ccc(cc1OC)/C=N\c1ccc(cc1)-c1ccc(cc1)/N=C\2	> 100 µM (inactive)	> 100 µM (inactive)	> 100 µM (inactive)	> 100 µM (inactive)	> 100 µM (inactive)	> 100 µM (inactive)	> 100 µM (inactive)	–	> 100 µM (inactive)	> 100 µM (inactive)	> 100 µM (inactive)	> 100 µM (inactive)	> 100 µM (inactive)	> 100 µM (inactive)	> 100 µM (inactive)	> 100 µM (inactive)	> 100 µM (inactive)
COC(=O)[C@H](Cc1c[nH]c2ccccc12)NP(=O)(O)OC[C@H]1O[C@@H](n2cc(C)c(=O)[nH]c2=O)C[C@@H]1N=[N+]=[N-]	> 100 µM (inactive)	> 100 µM (inactive)	> 100 µM (inactive)	> 100 µM (inactive)	> 100 µM (inactive)	> 100 µM (inactive)	> 100 µM (inactive)	–	> 100 µM (inactive)	> 100 µM (inactive)	> 100 µM (inactive)	> 100 µM (inactive)	> 100 µM (inactive)	> 100 µM (inactive)	> 100 µM (inactive)	> 100 µM (inactive)	> 100 µM (inactive)
Cc1c2c(OCC3CCCCO3)nn(C)c(=O)c2c(C)n1-c1ccccc1 (stereo not drawn)	19.7 µM (inactive)	29 µM (inactive)	21.2 µM (inactive)	–	21.5 µM (inactive)	18.6 µM (inactive)	19.5 µM (inactive)	–	15.8 µM (inactive)	19.9 µM (inactive)	16.1 µM (inactive)	17.2 µM (inactive)	17 µM (inactive)	15.3 µM (inactive)	38.8 µM (inactive)	13 µM (inactive)	17.7 µM (inactive)
